Format in all cases: cell-based
Data set [1] addresses T1, Kv1.5 (Homo sapiens, UniProt P22460).
T1 construct: expressed in transfected cells; host or cells: HEK or LTK- cells
The data set can be described thus: Kv1.5 Patch Clamp EP (whole cell patch clamp; single point at 1 μM and IC50). Conditions: for inhibition at 1 µM: single point at 1.0 μM, Kv1.5 stably over expressed in HEK or LTK- cells. The method, then:
The external solution is standard Tyrodes solution. […] Inhibition was measured at the end of the 1 second pulses and expressed relative to controls. Initial Kv1.5 inhibition is estimated by single point determinations done at 1 μM.
In general terms: The patch-clamp technique gives a direct electrical read-out from membranes.

Data set [2] addresses T2, HERG (Homo sapiens, UniProt Q12809).
T2 construct: expressed in transfected cells; host or cells: HEK cells
The data set can be described thus: HERG Patch Clamp EP (whole cell patch clamp, tail currents; single point at 10 μM and IC50). Conditions: for inhibition at 10 µM: human, HEK cells stably overexpressing HERG, single point at 10 μM, HERG in HEK cells, read-out: HERG % Inhib. @ 10 μM. An excerpt: The external solution is standard Tyrodes solution.

The test system of data set [3] is L-type calcium channels. The data set can be described thus: FLIPR L-type Calcium Channel Assay (calcium influx in HL-1 cells after KCl). Conditions: read-out: L-type Ca2+ IC50. On the procedure: HL-1 cells expressing endogenous L-type calcium channels are removed from culture flasks using trypsin, plated on fibronectin/gelatin-coated, clear-bottomed, black-walled 96-well microplates in Claycomb media (JRH Biosciences #51800) containing 10% fetal bovine serum, 4 mM L-glutamine, and 10 μM norepinephrine, and grown to confluency overnight. The next day, growth medium is aspirated from confluent cell monolayers and replaced with 100 μL per well Tyrode's solution (in mM: 130 NaCl, 4 KCl, 1.8 CaCl2, 1.0 MgCl2, 20 HEPES, 10 glucose, pH 7.35) and 50 μL per well FLIPR Calcium Assay kit, component A (#R-8033, Molecular Devices Corporation) and incubated for 60 min. in a 5% CO2 37° C. incubator. 50 μL per well test compounds are added to the plates and further incubated for 15 min. in a 5% CO2 37° C. incubator. All final solutions contain the anion exchange inhibitor, probenecid (2.5 mM). The 96-well plates are then placed in the center position of the FLIPR 1 (Fluorometric Imaging Plate Reader, Molecular Devices Corporation). Cell monolayers in each well are simultaneously illuminated at 488 nm with an Argon ion laser, and fluorescence emission is monitored using a 510-570 nm bandpass filter and a cooled CCD camera. To depolarize the plasma membrane and activate L-type calcium channels, 50 μL per well of 20 mM KCl (final concentration) are dispensed simultaneously to all 96 wells using the FLIPR's automatic 96-well pipettor. Fluorescence measurements are captured for 5 min. following KCl addition. Calcium influx, expressed as % control, is calculated for each concentration of test compound and concentration-response curves and IC50 values are generated using GraphPad Prism 4.0.

The IC50 is the concentration that gives 50% inhibition.

T1 sequence (P22460 whole entry): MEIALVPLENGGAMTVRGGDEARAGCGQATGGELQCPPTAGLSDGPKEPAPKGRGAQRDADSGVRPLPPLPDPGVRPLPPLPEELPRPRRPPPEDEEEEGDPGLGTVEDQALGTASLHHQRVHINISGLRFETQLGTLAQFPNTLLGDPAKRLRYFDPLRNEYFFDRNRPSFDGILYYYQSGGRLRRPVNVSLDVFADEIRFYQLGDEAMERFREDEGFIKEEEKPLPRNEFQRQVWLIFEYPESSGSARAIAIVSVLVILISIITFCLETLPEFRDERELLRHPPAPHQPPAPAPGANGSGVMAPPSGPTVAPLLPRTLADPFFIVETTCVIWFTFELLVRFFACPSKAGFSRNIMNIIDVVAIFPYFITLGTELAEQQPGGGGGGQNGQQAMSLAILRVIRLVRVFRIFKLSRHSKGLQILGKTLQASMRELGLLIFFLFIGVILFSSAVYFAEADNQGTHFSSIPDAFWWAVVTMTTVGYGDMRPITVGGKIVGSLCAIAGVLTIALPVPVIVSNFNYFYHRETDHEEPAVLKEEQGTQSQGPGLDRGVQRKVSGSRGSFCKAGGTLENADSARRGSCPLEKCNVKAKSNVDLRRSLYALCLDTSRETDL
T2 sequence (Q12809 whole entry): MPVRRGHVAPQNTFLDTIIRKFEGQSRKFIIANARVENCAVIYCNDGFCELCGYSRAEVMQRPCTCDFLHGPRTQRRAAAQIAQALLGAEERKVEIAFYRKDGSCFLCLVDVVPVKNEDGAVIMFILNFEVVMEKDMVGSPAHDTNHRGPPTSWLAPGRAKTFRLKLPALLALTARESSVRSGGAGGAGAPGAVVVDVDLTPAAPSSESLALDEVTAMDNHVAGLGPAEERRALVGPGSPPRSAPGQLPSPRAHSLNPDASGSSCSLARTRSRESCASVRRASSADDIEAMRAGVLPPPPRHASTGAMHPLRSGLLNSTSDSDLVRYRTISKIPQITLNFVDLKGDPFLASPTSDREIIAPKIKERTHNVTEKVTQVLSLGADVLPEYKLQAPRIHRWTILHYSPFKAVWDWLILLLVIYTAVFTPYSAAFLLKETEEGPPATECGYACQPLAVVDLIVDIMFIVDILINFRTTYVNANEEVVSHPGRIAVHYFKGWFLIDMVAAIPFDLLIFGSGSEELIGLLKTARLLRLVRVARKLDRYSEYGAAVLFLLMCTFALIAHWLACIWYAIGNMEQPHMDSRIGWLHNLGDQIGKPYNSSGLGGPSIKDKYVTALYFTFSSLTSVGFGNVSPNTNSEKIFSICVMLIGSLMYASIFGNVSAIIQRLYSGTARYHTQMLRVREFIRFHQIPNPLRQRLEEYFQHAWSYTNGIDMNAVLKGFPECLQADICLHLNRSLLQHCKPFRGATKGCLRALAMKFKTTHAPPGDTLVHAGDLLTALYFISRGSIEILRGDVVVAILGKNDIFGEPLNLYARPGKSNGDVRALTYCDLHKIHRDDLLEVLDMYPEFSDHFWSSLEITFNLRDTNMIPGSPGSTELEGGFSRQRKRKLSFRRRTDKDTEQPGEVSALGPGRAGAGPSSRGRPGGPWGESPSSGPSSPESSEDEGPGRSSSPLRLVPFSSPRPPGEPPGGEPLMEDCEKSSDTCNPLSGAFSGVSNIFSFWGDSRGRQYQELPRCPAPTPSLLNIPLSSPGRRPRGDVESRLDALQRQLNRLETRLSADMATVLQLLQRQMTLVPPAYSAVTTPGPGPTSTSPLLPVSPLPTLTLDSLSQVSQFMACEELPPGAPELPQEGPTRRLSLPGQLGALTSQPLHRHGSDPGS

Regarding `COc1ccc(CCN2C(=O)C3(CCN(CC(=O)N(C)C)CC3)N(C)C2c2ccc(C3CC3)cc2)cc1` (centres unmarked) [Compound 89, 2-{2-(4-cyclopropylphenyl)-3-[2-(4-methoxyphenyl)ethyl]-1-methyl-4-oxo-1,3,8-triazaspiro[4.5]dec-8-yl}-N,N-dimethylacetamide], the IC50 in data set [1] (concentration response) was 0.273 µM; in data set [2] (concentration response), 12 µM; in data set [3], 12 µM. This compound also yielded an inhibition at 1 µM in data set [1] of 94%. The inhibition at 10 µM in data set [2] came out at 43%.

In data set [1], `CCOC(=O)N1CCC2(CC1)C(=O)N(CCc1ccc(OC)cc1)C(c1ccc(C3CC3)cc1)N2C` (centres unmarked) [Compound 35, Ethyl 2-(4-cyclopropylphenyl)-3-[2-(4-methoxyphenyl)ethyl]-1-methyl-4-oxo-1,3,8-triazaspiro[4.5]decane-8-carboxylate] had an inhibition at 1 µM of 96%. Also, in data set [2], the inhibition at 10 µM amounted to 65%. In data set [3], the IC50 is 30 µM.

In data set [1], `COc1ccc(CCN2C(=O)C3(CCN(C(=O)OC(C)(C)C)CC3)N(C)C2c2ccc(OC)cc2)cc1` (centres unmarked) [Compound 37, tert-Butyl 2-(4-methoxyphenyl)-3-[2-(4-methoxyphenyl)ethyl]-1-methyl-4-oxo-1,3,8-triazaspiro[4.5]decane-8-carboxylate] showed an inhibition at 1 µM of 83%. Also, the inhibition at 10 µM in data set [2] is 12%. Further, the IC50 in data set [3] turned out to be 14 µM.

Take `COc1ccc(CCN2C(=O)C3(CCN(C(=O)OC(C)(C)C)CC3)N(C)C2c2ccc(CC(C)C)cc2)cc1` (centres unmarked) [Compound 85, tert-butyl 2-(4-isobutylphenyl)-3-[2-(4-methoxyphenyl)ethyl]-1-methyl-4-oxo-1,3,8-triazaspiro[4.5]decane-8-carboxylate]: the inhibition at 1 µM in data set [1] came out at 85%. The inhibition at 10 µM in data set [2] came to 3%. Moreover, the half-maximal inhibitory concentration (IC50) in data set [3] was 6.7 µM.

In the case of `CCONC(=O)N1CCC2(CC1)C(=O)N(CCc1ccc(OC)cc1)C(c1ccc(C3CC3)cc1)N2C` (centres unmarked) [Compound 27, 2-(4-cyclopropylphenyl)-N-ethoxy-3-(4-methoxyphenethyl)-1-methyl-4-oxo-1,3,8-triazaspiro[4.5]decane-8-carboxamide], in data set [1], the inhibition at 1 µM worked out at 87%. Besides, in data set [2], the inhibition at 10 µM turned out to be 35%. The half-inhibitory concentration (IC50) in data set [3] was determined as 20 µM.

Turning to `CC(C)NC(=O)N1CCC2(CC1)C(=O)N(CCCc1ccccc1)C(c1ccc(C3CC3)cc1)N2C` (centres unmarked) [Compound 52, 2-(4-Cyclopropylphenyl)-1-methyl-4-oxo-3-(3-phenylpropyl)-1,3,8-triazaspiro-[4.5]decane-8-carboxylic acid isopropyl amide], in data set [1], the inhibition at 1 µM amounted to 89%. The inhibition at 10 µM in data set [2] was found to be 79%. In data set [3], the IC50 is 12 µM.

For the compound `CN1C(c2ccc(C(C)(C)C)cc2)N(CCCc2ccccc2)C(=O)C12CCN(C(N)=O)CC2` (centres unmarked) [Compound 50, 2-(4-tert-Butylphenyl)-1-methyl-4-oxo-3-(3-phenylpropyl)-1,3,8-triazaspiro-[4.5]decane-8-carboxylic acid amide], the inhibition at 1 µM in data set [1] stood at 72%. Also, the inhibition at 10 µM in data set [2] is 37%. The IC50 in data set [3] came to 16 µM.

As to `COc1ccc(CCN2C(=O)C3(CCN(C(=O)n4ccnc4)CC3)N(C)C2c2ccc(C3CC3)cc2)cc1` (centres unmarked) [Compound 91, 2-(4-cyclopropylphenyl)-8-(1H-imidazol-1-ylcarbonyl) —3-[2-(4-methoxyphenyl)ethyl]-1-methyl-1,3,8-triazaspiro[4.5]decan-4-one], in data set [1], the inhibition at 1 µM was 87%. The inhibition at 10 µM in data set [2] stood at 72%. The IC50 in data set [3] is 13 µM.

In data set [1], `COc1ccc(CCN2C(=O)C3(CCN(C(=O)C4CC4)CC3)N(C)C2c2ccc(OC(F)F)cc2)cc1` (centres unmarked) [Compound 6, 8-Cyclopropylcarbonyl-2-(4-difluoromethoxyphenyl)-3-[2-(4-methoxyphenyl)-ethyl]-1-methyl-1,3,8-triazaspiro[4.5]decan-4-one] had an inhibition at 1 µM of 68%. Further, the inhibition at 10 µM in data set [2] came to 85%. Further, the half-maximal inhibitory concentration (IC50) in data set [3] was determined as 13 µM.

The values above are taken from patent publication US20070299072A1, “KV1.5 POTASSIUM CHANNEL INHIBITORS” (Wyeth, priority 2006, published 2007).
